Results from ChEMBL document CHEMBL4819069, “Discovery of multifunctional anti-Alzheimer's agents with a unique mechanism of action including inhibition of the enzyme butyrylcholinesterase and γ-aminobutyric acid transporters” (Eur J Med Chem, 2021).
Active and inactive are the calls of the source. The calls are words filed in the database; no cut-off is given here.

What was measured:
[1] = molecular target: T1, Sodium- and chloride-dependent GABA transporter 3 (Homo sapiens, UniProt P48066); test: Inhibition of human GAT3 expressed in COS-7 cells assessed as reduction in [2H6]GABA uptake preincubated for 25 mins followed by [2H6]GABA addition and measured after 6 mins by LC-MS/MS analysis; type: cell-based
T1 sequence (P48066 whole entry): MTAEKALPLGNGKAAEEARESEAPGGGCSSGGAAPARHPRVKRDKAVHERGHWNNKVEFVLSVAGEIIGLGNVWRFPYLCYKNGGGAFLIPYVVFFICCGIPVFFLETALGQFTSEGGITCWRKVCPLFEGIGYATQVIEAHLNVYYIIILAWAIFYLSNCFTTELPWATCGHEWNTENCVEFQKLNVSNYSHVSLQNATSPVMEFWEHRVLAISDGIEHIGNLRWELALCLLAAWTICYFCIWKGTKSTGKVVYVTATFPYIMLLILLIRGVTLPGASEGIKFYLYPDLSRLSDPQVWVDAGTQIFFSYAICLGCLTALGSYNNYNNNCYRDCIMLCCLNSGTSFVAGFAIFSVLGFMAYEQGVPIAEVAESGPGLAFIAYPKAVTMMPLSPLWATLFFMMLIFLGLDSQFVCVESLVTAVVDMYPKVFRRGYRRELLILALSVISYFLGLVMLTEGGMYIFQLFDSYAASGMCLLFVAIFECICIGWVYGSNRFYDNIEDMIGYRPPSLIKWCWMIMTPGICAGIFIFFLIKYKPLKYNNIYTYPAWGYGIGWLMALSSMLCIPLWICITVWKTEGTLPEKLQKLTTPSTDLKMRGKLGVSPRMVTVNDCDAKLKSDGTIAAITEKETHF

[2] = molecular target: Amyloid-beta precursor protein (Homo sapiens) (UniProt P05067); test: Inhibition of HFIP-pretreated amyloid beta (1 to 42) (unknown origin) aggregation at 10 uM after 36 to 48 hrs by thioflavin-T fluorescence assay relative to control; conditions: time 36-48 hrs
Sequence of Amyloid-beta precursor protein (Homo sapiens) (P05067 whole entry): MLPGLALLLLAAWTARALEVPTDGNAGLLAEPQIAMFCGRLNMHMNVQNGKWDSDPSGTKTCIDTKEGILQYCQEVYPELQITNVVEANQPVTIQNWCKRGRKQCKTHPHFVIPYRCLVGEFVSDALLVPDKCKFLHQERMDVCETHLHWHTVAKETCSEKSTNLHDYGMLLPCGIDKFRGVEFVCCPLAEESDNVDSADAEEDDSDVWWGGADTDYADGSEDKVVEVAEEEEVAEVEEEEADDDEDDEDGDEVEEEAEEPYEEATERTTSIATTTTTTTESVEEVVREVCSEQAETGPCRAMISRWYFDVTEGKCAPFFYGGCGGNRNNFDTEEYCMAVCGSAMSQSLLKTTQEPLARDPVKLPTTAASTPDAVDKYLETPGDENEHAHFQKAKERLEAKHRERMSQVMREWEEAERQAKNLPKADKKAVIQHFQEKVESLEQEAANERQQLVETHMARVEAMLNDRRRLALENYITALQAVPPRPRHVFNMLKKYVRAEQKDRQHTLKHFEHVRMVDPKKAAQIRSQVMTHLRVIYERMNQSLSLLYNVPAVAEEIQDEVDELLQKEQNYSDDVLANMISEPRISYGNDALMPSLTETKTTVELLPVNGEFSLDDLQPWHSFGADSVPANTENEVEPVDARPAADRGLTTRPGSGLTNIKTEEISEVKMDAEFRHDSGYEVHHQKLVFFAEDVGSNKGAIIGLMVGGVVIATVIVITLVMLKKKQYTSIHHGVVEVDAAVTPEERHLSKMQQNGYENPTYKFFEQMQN

Cholinesterase [3] = molecular target: Cholinesterase (Equus caballus, UniProt P81908)
Sequence of Cholinesterase (Equus caballus, UniProt P81908) (P81908 whole entry): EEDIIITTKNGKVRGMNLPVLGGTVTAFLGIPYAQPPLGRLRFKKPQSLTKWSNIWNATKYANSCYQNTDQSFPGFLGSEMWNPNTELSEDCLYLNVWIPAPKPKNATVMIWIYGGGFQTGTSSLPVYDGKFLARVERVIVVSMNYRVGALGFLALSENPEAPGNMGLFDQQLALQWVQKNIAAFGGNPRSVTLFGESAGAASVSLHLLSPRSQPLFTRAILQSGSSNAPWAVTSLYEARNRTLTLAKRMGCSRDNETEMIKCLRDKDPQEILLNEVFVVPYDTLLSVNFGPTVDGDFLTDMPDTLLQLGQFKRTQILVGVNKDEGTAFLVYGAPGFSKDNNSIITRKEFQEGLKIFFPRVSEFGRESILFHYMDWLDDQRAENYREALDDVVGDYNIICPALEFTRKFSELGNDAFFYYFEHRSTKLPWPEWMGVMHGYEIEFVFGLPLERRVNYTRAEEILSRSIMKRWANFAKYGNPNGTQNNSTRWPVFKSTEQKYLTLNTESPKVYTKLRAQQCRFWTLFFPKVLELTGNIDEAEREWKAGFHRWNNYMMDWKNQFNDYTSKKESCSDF
Description: Inhibition of equine serum BuChE using butyrylthiocholine as substrate preincubated for 5 mins followed by substrate addition and measured after 5 mins by Ellman's method

[4] = molecular target: Cholinesterase (Equus caballus) (UniProt P81908); test: Noncompetitive inhibition of equine serum BuChE assessed as decrease in Vmax with constant Km using varying concentrations of BTC as substrate by Lineweaver-burk and Cornish-Bowden plot analysis
Sequence of Cholinesterase (Equus caballus) (P81908 whole entry): as above

[5] = molecular target: Acetylcholinesterase (Electrophorus electricus) (UniProt O42275); test: Inhibition of electric eel AChE at 10 uM using acetylthiocholine as substrate preincubated for 5 mins followed by substrate addition and measured after 5 mins by Ellman's method relative to control; conditions: time 10.0 min
Sequence of Acetylcholinesterase (Electrophorus electricus) (O42275 24-633 limits assumed): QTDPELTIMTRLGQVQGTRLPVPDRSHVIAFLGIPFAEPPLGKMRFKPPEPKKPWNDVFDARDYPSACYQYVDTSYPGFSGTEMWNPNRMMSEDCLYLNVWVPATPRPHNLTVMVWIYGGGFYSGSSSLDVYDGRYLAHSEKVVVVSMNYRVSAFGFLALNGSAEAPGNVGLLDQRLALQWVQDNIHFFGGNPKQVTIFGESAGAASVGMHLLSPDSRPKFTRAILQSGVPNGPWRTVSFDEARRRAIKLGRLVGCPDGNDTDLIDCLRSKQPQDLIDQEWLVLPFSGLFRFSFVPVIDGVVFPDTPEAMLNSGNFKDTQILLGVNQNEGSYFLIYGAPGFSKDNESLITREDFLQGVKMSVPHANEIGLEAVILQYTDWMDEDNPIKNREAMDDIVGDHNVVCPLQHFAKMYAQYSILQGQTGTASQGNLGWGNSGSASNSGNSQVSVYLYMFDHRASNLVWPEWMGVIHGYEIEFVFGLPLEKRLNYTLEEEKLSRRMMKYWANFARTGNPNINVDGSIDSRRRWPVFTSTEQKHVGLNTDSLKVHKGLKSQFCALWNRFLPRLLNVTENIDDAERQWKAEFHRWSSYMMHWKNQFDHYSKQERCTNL

[6] = Metabolic stability in human liver microsomes assessed as parent compound remaining after 120 mins in presence of NADPH regeneration system by UPLC/MS anlaysis; type: ADME, Microsome; conditions: read-out: Stabilty
Cytochrome P450 3A4 = Cytochrome P450 3A4 (Homo sapiens, UniProt P08684); test: Inhibition of CYP3A4 (unknown origin) at 10 uM; type: ADME
[7] = molecular target: T2, GABA transporter 4 (Mus musculus) (UniProt P31650); test: Inhibition of mouse GAT3 expressed in HEK293 cell line assessed as reduction in [3H]GABA uptake at 100 uM incubated for 10 mins relative to control; type: cell-based
T2 sequence (whole entry): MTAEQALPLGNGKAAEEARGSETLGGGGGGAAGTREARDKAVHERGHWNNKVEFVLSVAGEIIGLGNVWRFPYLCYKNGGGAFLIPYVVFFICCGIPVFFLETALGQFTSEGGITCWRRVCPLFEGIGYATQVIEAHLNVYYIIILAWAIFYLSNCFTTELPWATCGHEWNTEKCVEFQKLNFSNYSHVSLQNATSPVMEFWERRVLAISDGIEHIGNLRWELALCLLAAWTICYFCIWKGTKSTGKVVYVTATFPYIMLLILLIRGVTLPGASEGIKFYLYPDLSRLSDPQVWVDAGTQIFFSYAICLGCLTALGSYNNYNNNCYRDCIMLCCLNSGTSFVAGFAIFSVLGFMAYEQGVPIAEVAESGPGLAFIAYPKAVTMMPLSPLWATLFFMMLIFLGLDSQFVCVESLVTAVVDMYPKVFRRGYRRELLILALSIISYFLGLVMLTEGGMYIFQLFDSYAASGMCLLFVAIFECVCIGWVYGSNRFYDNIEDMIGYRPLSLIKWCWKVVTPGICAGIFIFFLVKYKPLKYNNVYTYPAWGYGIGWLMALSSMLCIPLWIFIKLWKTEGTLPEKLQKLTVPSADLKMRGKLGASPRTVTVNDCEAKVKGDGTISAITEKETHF

[8] = Hepatotoxicity in human HepG2 cells at 10 uM incubated for 72 hrs by MTS assay; type: cell-based; conditions: hepg2, 72 h
[9] = Neurotoxicity against mouse HT22 cells assessed as cell viability at 30 uM incubated for 24 hrs by MTT assay; type: cell-based, HT-22; conditions: ht-22, 24 h, 30 µM
Beta-secretase 1 = Beta-secretase 1 (Homo sapiens, UniProt P56817); conditions: dose 50.0 µM, time 60.0 min
Sequence of Beta-secretase 1 (P56817 whole entry): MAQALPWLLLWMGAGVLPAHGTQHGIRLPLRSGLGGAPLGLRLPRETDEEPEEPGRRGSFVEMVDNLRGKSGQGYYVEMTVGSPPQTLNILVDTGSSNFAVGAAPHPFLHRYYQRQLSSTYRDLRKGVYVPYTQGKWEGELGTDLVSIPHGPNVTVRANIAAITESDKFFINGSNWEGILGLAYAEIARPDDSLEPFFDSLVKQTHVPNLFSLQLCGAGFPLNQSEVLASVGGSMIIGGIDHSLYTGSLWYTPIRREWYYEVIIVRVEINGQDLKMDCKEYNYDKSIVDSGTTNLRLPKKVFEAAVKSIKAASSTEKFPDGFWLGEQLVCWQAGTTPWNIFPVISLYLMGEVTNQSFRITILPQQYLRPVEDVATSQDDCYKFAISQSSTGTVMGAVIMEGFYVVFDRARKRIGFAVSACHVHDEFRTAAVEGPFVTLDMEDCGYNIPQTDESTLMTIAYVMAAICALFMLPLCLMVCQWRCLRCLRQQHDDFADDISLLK

GABA transporter 4 = molecular target: T3, GABA transporter 4 (Mus musculus, UniProt P31650); test: Inhibition of mouse GAT4 expressed in HEK293 cell line assessed as reduction in [3H]GABA uptake incubated for 10 mins; type: cell-based
T3 sequence (P31650 whole entry): T2 sequence (whole entry)

Cytochrome P450 2D6 = Cytochrome P450 2D6 (Homo sapiens, UniProt P10635); test: Inhibition of CYP2D6 (unknown origin) at 10 uM; type: ADME
Sequence of Cytochrome P450 2D6 (P10635 whole entry): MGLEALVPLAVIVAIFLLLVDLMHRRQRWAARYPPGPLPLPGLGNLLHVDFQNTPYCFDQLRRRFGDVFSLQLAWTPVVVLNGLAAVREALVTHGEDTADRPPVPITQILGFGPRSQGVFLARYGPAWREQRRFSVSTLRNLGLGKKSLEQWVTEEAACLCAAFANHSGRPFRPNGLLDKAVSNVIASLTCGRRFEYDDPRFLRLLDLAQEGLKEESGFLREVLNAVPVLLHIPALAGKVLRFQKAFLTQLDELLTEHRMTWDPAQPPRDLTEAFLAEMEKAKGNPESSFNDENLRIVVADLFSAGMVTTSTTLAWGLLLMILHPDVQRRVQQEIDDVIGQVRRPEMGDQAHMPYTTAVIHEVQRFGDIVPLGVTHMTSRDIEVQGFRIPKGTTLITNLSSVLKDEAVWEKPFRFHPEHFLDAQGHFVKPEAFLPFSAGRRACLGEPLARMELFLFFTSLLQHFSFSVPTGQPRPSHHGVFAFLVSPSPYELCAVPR

[10] = Hepatotoxicity in human HepG2 cells at 1 uM incubated for 72 hrs by MTS assay; type: cell-based; conditions: hepg2, 72 h
[11] = molecular target: Sodium- and chloride-dependent GABA transporter 1 (Mus musculus) (UniProt P31648); test: Inhibition of NO711 binding to mouse GAT1 expressed in HEK cell membranes at 100 uM incubated for 40 mins in presence of NO711 by LC-ESI-MS/MS analysis relative to control; conditions: Membrane
Cholinesterase [12] = molecular target: Cholinesterase (Homo sapiens, UniProt P06276)
Sequence of Cholinesterase (Homo sapiens, UniProt P06276) (P06276 whole entry): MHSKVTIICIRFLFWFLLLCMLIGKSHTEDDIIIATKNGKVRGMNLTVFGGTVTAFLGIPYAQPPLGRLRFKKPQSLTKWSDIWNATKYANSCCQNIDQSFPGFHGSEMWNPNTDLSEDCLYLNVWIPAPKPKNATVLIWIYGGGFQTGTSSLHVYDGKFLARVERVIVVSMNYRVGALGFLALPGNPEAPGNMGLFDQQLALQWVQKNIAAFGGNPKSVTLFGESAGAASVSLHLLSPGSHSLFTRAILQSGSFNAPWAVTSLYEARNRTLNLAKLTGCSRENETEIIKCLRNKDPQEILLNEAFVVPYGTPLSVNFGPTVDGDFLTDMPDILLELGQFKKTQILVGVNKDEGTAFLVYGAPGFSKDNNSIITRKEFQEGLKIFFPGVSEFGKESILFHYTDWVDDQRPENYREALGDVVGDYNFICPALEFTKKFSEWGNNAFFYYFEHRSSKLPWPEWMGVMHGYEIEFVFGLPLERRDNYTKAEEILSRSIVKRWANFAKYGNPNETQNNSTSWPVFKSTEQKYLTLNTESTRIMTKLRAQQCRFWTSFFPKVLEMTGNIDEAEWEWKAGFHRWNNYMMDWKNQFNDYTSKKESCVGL
Description: Inhibition of human BuchE using butyrylthiocholine as substrate preincubated for 5 mins followed by substrate addition and measured after 5 mins by Ellman's method

[13] = Neurotoxicity against mouse HT22 cells assessed as cell viability at 10 uM incubated for 24 hrs by MTT assay; type: cell-based, HT-22; conditions: ht-22, 24 h, 10 µM
[14] = molecular target: T4, Sodium- and chloride-dependent GABA transporter 1 (Mus musculus, UniProt P31648); test: Inhibition of mouse GAT1 expressed in HEK293 cell line assessed as reduction in [3H]GABA uptake incubated for 10 mins; type: cell-based
[15] = Hepatotoxicity in human HepG2 cells at 50 to 100 uM incubated for 72 hrs by MTS assay; type: cell-based; conditions: hepg2, 72 h, dose 50-100 µM
[16] = molecular target: T4, Sodium- and chloride-dependent GABA transporter 1; test: Inhibition of NO711 binding to mouse GAT1 expressed in HEK cell membranes incubated for 40 mins in presence of NO711 by LC-ESI-MS/MS analysis; parameters: species or system Membrane

| Compound | IC50 [1] [µM] | inhibition [2] [%] | IC50 (Cholinesterase [3]) [µM] | inhibition [4] | inhibition [5] [%] | remaining at 2 h [6] [%] | inhibition (INH) (Cytochrome P450 3A4) | inhibition [7] [%] | Activity [8] | Activity [9] | inhibition (Beta-secretase 1) [%] | IC50 (GABA transporter 4) [µM] | inhibition (INH) (Cytochrome P450 2D6) | Activity [10] | inhibition [11] [%] | IC50 (Cholinesterase [12]) [µM] | Activity [13] | IC50 [14] [µM] | Activity [15] | IC50 [16] [µM] |
| --- | --- | --- | --- | --- | --- | --- | --- | --- | --- | --- | --- | --- | --- | --- | --- | --- | --- | --- | --- | --- |
| COc1ccc(C(OCCN2CCC[C@H](C(=O)O)C2)(c2ccc(OC)cc2)c2ccc(OC)cc2C)cc1 | 3.16 |  |  |  |  |  |  |  |  |  |  |  |  |  |  |  |  |  |  |  |
| CC(C)(C)CNC[C@@H](O)[C@H](Cc1ccccc1)NC(=O)C(c1ccccc1)c1ccccc1 |  | 20.5 | 0.1 | Active | < 10 | 79.2 | Active | 54 | Non-Toxic | Toxic | 40 | 30.9 | Active | Non-Toxic | 71 | 0.45 | Non-Toxic | 25.1 | Toxic |  |
| COc1ccc(C(/C=C/CN2CCC[C@H](C(=O)O)C2)(c2ccc(OC)cc2)c2ccc(OC)cc2)cc1 | 1.59 |  |  |  |  |  |  |  |  |  |  |  |  |  |  |  |  |  |  | 46.8 |
